Experimental data published in article PMC5158193, “Molecular Characterization and Functional Analysis of a Novel Calcium-Dependent Protein Kinase 4 from Eimeria tenella” (PLoS ONE, 2016).

Target: T1, rEtCDPK4 (Eimeria tenella, UniProt A0A165BP42)
T1 construct: gene CDPK4; fragment, ORF bp 118-1777 (cDNA 303-1962); N-terminal 6xHis (pCold I), E. coli BL21; kinase domain and all six EF hands
T1 sequence (A0A165BP42 40-592): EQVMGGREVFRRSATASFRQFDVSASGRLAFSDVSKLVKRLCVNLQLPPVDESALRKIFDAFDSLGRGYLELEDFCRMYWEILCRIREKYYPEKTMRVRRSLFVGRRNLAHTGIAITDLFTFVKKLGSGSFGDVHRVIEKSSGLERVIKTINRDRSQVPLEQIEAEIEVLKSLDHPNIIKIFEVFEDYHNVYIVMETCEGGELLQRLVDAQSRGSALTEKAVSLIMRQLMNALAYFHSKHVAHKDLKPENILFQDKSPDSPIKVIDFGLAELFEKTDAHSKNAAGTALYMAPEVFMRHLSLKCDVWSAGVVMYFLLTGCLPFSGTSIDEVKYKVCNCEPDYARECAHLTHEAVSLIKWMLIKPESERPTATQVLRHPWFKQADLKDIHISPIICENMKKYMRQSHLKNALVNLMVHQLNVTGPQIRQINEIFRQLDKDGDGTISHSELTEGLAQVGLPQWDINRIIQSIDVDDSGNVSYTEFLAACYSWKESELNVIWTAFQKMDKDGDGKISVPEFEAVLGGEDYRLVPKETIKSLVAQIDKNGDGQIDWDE
Assay: PepTag C1-peptide non-radioactive kinase assay, A570
Format: biochemical
Conditions: 1 mM ATP, 1.3 mM CaCl2, 10 mM MgCl2, phosphatidylserine, 47.5 μM PepTag C1-peptide, pH 7.4, 30 °C

| Structure (SMILES) | kinase activity at 100 μM inhibitor |
| --- | --- |
| NCCCCCCNS(=O)(=O)c1cccc2c(Cl)cccc12 [W-7] | W-7, H-7, H-89, staurosporine, Ro-31-8220 and myristoylated peptide significantly decreased enzyme activity |
| O=S(=O)(NCCNC/C=C/c1ccc(Br)cc1)c1cccc2cnccc12 [H-89] | W-7, H-7, H-89, staurosporine, Ro-31-8220 and myristoylated peptide significantly decreased enzyme activity |
| CC1CNCCN1S(=O)(=O)c1cccc2cnccc12 (centres unmarked) [H-7] | W-7, H-7, H-89, staurosporine, Ro-31-8220 and myristoylated peptide significantly decreased enzyme activity |
| Cn1cc(C2=C(c3cn(CCCSC(=N)N)c4ccccc34)C(=O)NC2=O)c2ccccc21 [Ro-31-8220] | W-7, H-7, H-89, staurosporine, Ro-31-8220 and myristoylated peptide significantly decreased enzyme activity |
| CN[C@@H]1C[C@H]2O[C@@](C)([C@@H]1OC)n1c3ccccc3c3c4c(c5c6ccccc6n2c5c31)C(=O)NC4 [staurosporine] | W-7, H-7, H-89, staurosporine, Ro-31-8220 and myristoylated peptide significantly decreased enzyme activity |
